Assay results from article PMC6009888, “Design, synthesis, and pharmacological evaluation of 2-amino-5-nitrothiazole derived semicarbazones as dual inhibitors of monoamine oxidase and cholinesterase: effect of the size of aryl binding site” (Journal of Enzyme Inhibition and Medicinal Chemistry, 2017).
Values joined by “and” are separate entries in the source; they are usually repeats but may differ in a detail not shown here. Equal values may be shown once. Read-outs that look alike come from different tables or passages of the source.

Key:
[1] = biological target: T1, MAO-A (Rattus norvegicus, UniProt P21396); experiment: In vitro MAO-A inhibition assay (rat brain mitochondria, serotonin substrate); type: biochemical; conditions: for IC50: rat brain mitochondria, serotonin substrate, mean ± SEM, triplicate
T1 construct: employing crude rat brain mitochondrial suspension; from tissue; host or cells: brain mitochondria of adult Wistar rats
T1 sequence (P21396 1-526): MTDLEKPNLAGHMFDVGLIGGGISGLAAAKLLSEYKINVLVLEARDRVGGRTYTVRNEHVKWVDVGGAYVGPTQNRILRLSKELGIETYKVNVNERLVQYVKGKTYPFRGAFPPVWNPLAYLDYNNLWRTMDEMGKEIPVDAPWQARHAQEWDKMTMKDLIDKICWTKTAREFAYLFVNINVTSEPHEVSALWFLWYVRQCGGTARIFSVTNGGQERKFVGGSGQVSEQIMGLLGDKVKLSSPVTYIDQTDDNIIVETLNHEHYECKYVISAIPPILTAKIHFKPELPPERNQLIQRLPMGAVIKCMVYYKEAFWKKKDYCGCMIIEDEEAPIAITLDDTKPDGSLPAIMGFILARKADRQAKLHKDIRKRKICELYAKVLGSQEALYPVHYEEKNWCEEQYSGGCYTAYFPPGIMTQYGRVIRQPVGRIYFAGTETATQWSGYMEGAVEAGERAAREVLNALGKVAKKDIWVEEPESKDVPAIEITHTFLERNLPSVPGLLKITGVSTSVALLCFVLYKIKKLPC
Procedure: Rat brain mitochondria were used as a source of MAO isoforms. All operations were carried out at 4 °C[50]. Male and female adult Wistar rats weighing 200–220 g were decapitated. All brains were rapidly removed and homogenised with a Potter–Elvehjem homogeniser in cold 0.32 M sucrose and 50 mM Tris-HCl, pH 8.2 (10:1, v/w). The homogenate was centrifuged twice at 1000 g for 5 min at 4 °C. The resulting supernatant was centrifuged at 20,000 g for 20 min. The mitochondrial pellet obtained was suspended in 100 mM sodium phosphate buffer, pH 7.4 (4:1, v/w), fractionated in plastic vials to 500 µl samples and stored at −80 °C. Before use, mitochondria were diluted with 100 mM sodium phosphate buffer to give a working solution of 0.80 mg of protein per millilitre.
The experiments were carried out under all the suitable laboratory conditions. […] An aliquot was made to contain mixture of 55 µl mitochondrial suspension (0.80 mg of protein/ml), 90 µl 50 mM Tris-HCl buffer, pH 8.2 and 30 µl solubilising solution (control or inhibitor solution at five different concentrations). The reaction was initiated by adding 25 µl of serotonin (4 mM, substrate for MAO-A) and 25 µl benzylamine (0.1 M, substrate for MAO-B) for the determination of MAO-A and MAO-B activity, respectively. The mixture was incubated at 37 °C for 30 min and the reaction was stopped by the addition of 50 µl of 1 N HCl. The absorbance associated with the production of 5-hydroxyindolacetic acid was measured at 280 nm for the estimation of MAO-A while for MAO-B estimation, the absorbance was measured at 250 nm due to the formation of benzaldehyde. All the assays were performed in triplicate. Control experiments were carried out without inhibitor and blanks were run without mitochondrial suspension.
Data are expressed as mean ± standard error mean (SEM) of experiments performed in triplicate.
(§1) 0, 15, 30 and 60 min at 37 °C in Tris-HCl buffer (50 mM, pH 8.2). […] The reactions were further incubated at 37 °C for a further 15 min and the residual enzyme activities were measured and the bar graphs were constructed. All measurements were carried out in triplicate and are expressed as mean ± SEM.

[2] = biological target: T2, rat brain AChE (Rattus norvegicus, UniProt P37136); experiment: biochemical; type: biochemical; conditions: for IC50: rat brain AChE, ACTI substrate, mean ± SEM, triplicate
T2 construct: the resulting clear supernatants obtained were used as enzyme sources; from tissue; host or cells: rat brain cortex homogenate, 10,000 g supernatant
Procedure: Rat brain was used as a source of AChE enzyme. Rats were separately decapitated, the brain cortices quickly removed, weighed and homogenised in cold 10 mM Tris-HCl buffer, pH 7.2, containing 160 mM sucrose. The homogenates were centrifuged at 10,000 g for 10 min at 4 °C, and the resulting clear supernatants obtained were used as enzyme sources that were divided into aliquots and stored at −20 °C.
About 30 µl of enzyme sample (AChE) was added to 60 µl of 20 mM sodium phosphate buffer (pH 7.4) and were incubated in the presence of 30 µl of 10 mM DTNB solution with different concentrations of the test compounds. The enzyme reaction was initiated by the addition of 30 µl of 0.8 mM ACTI. The mixtures were incubated for 15 min at 25 °C. […] Control experiments were carried out without inhibitor, and blanks were run without AChE enzyme. All the assays were performed in triplicate. IC50 values were determined using the GraphPad Prism 5.0 (San Diego, CA) and the results were expressed as mean ± SEM.
as §1, with “25” for “37”, “sodium phosphate” for “Tris-HCl”, “(20” for “(50”, “7.4) and DTNB solution (10 mM).” for “8.2).”, “reaction was” for “reactions were”

[3] = physchem
[4] = read-out: MAO-A In vitro IC50 (µM) ± SEM
[5] = time-dependent inhibition, pre-incubation 0, 15, 30, 60 min
[6] = read-out: AChE In vitro IC50 (µM) ± SEM

T2 sequence (P37136 32-614): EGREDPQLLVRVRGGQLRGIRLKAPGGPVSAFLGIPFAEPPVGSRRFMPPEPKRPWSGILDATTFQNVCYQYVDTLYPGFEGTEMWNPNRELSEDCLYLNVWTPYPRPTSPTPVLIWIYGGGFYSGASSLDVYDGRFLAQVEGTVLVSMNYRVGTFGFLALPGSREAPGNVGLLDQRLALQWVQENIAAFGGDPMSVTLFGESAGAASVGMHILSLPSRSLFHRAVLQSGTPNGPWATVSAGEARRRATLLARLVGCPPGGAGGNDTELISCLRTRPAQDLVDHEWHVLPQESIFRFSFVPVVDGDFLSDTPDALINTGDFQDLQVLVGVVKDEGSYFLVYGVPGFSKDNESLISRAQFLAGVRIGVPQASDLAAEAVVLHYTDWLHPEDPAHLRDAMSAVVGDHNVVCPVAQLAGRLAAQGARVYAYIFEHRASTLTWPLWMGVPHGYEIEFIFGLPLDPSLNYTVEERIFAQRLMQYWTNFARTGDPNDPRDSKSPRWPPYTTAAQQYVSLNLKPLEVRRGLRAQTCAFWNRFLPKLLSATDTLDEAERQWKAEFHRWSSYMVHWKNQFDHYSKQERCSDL

Compound	Mode of MAO-A inhibition ([1]; Lineweaver–Burk plots, serotonin)	Ki ([1]; kinetic study, non-competitive model, GraphPad Prism, read-out: Ki (dissociation constant) against MAO-A)	IC50 [1, 4]	Reversibility of MAO-A inhibition [1, 5]	Mode of AChE inhibition ([2]; Lineweaver–Burk plots, ACTI)	IC50 [2, 6]	Reversibility of AChE inhibition [2, 5]	logP ([3]; octanol/water)	AChE: fold decrease in activity versus bromo substitution (compound 4) ([2]; halogen at carbimino terminal phenyl ring)	IC50 ([1]; MAO-A In vitro IC50 (µM) ± SEM)	IC50 ([2]; AChE In vitro IC50 (µM) ± SEM)	AChE: fold increase in activity relative to compound 17 ([2]; diaryl analogues)	logP [3]
O=C(NN=C1C(=O)Nc2ccc(Br)cc21)Nc1ncc([N+](=O)[O-])s1 [Compound 21, 1-(5-Bromo-2-oxoindolin-3-ylidene)-4–(5-nitrothiazol-2-yl)semicarbazide]	non-competitively	17.3 ± 1.79 µM	< 100 µM and 57.2 µM	reversible	mixed-type	0.264 µM	reversible	1.9	–	–	–	–	–
CC(=NNC(=O)Nc1ncc([N+](=O)[O-])s1)c1ccc(Cl)cc1 [Compound 5, 1-(1-(4-Chlorophenyl)ethylidene)-4-(5-nitrothiazol-2-yl)semicarbazide]	–	–	4761 ± 10.8 µM	–	–	356 ± 4.73 µM	–	2.1	> 1000 fold	–	–	–	–
O=C(NN=C(c1ccc(Cl)cc1)c1ccc(Cl)cc1)Nc1ncc([N+](=O)[O-])s1 [Compound 19, 1-(Bis(4-chlorophenyl)methylene)-4-(5-nitrothiazol-2-yl)semicarbazide]	–	–	–	–	–	–	–	–	–	> 100 µM and 50700 µM	1.45 ± 0.047 µM	~7.95 fold	3.9
CC(=NNC(=O)Nc1ncc([N+](=O)[O-])s1)c1ccc(Br)cc1 [Compound 4, 1-(1-(4-Bromophenyl)ethylidene)-4-(5-nitrothiazol-2-yl)semicarbazide]	–	–	< 100 µM and 70.2 µM	–	–	0.34 ± 0.007 µM	–	2.2	–	–	–	–	–
